Measured values reported in paper PMC7313537 (PLoS ONE, 2020).

Assays:
Assay in all cases: Broader kinase panel (PerkinElmer)
Type in all cases: biochemical
Details in all cases: 100 nM; read-out: Average Percent Inhibition
ABL = target: T1, ABL (Homo sapiens, UniProt P00519)
T1 construct: purchased In-house HTRF panel (56 kinases) and PerkinElmer (161-kinase panel)
Description: (§1) […]. […] […].

ABL1(Y253F) = target: T2, ABL1(Y253F) (Homo sapiens, UniProt P00519, Y253F)
T2 construct: purchased In-house HTRF panel (56 kinases) and PerkinElmer (161-kinase panel)
Description: as §1

AKT2 = target: T3, AKT2 (Homo sapiens, UniProt P31751)
T3 construct: purchased In-house HTRF panel (56 kinases) and PerkinElmer (161-kinase panel)
Description: as §1

AKT3 = target: T4, AKT3 (Homo sapiens, UniProt Q9Y243)
T4 construct: purchased In-house HTRF panel (56 kinases) and PerkinElmer (161-kinase panel)
Description: as §1

[1] = target: T5, AMPK-alpha2/beta1/gamma 1 (Homo sapiens, UniProt P54646)
T5 construct: purchased In-house HTRF panel (56 kinases) and PerkinElmer (161-kinase panel)
Description: as §1

Abl (Q252H) = target: T6, Abl (Q252H) (Homo sapiens, UniProt P00519, Q252H)
T6 construct: purchased In-house HTRF panel (56 kinases) and PerkinElmer (161-kinase panel)
Description: as §1

Abl (T315I) = target: T7, Abl (T315I) (Homo sapiens, UniProt P00519, T315I)
T7 construct: purchased In-house HTRF panel (56 kinases) and PerkinElmer (161-kinase panel)
Description: as §1

AurB = target: T8, AurB (Homo sapiens, UniProt Q96GD4)
T8 construct: purchased In-house HTRF panel (56 kinases) and PerkinElmer (161-kinase panel)
Description: as §1

BTK = BTK (Homo sapiens, UniProt Q06187)
Description: as §1

CAMK4 = target: T9, CAMK4 (Homo sapiens, UniProt Q16566)
T9 construct: purchased In-house HTRF panel (56 kinases) and PerkinElmer (161-kinase panel)
Description: as §1

CHK1 = target: T10, CHK1 (Homo sapiens, UniProt O14757)
T10 construct: purchased In-house HTRF panel (56 kinases) and PerkinElmer (161-kinase panel)
Description: as §1

CLK2 = target: T11, CLK2 (Homo sapiens, UniProt P49760)
T11 construct: purchased In-house HTRF panel (56 kinases) and PerkinElmer (161-kinase panel)
Description: as §1

Ca MK1a = target: T12, Ca MK1a (Homo sapiens, UniProt Q14012)
T12 construct: purchased In-house HTRF panel (56 kinases) and PerkinElmer (161-kinase panel)
Description: as §1

DCAMKL1 = target: T13, DCAMKL1 (Homo sapiens, UniProt O15075)
T13 construct: purchased In-house HTRF panel (56 kinases) and PerkinElmer (161-kinase panel)
Description: as §1

EPHA1 = target: T14, EPHA1 (Homo sapiens, UniProt P21709)
T14 construct: purchased In-house HTRF panel (56 kinases) and PerkinElmer (161-kinase panel)
Description: as §1

EPHA3 = target: T15, EPHA3 (Homo sapiens, UniProt P29320)
T15 construct: purchased In-house HTRF panel (56 kinases) and PerkinElmer (161-kinase panel)
Description: as §1

EPHB1 = target: T16, EPHB1 (Homo sapiens, UniProt P54762)
T16 construct: purchased In-house HTRF panel (56 kinases) and PerkinElmer (161-kinase panel)
Description: as §1

EPHB3 = target: T17, EPHB3 (Homo sapiens, UniProt P54753)
T17 construct: purchased In-house HTRF panel (56 kinases) and PerkinElmer (161-kinase panel)
T17 sequence (P54753 34-998): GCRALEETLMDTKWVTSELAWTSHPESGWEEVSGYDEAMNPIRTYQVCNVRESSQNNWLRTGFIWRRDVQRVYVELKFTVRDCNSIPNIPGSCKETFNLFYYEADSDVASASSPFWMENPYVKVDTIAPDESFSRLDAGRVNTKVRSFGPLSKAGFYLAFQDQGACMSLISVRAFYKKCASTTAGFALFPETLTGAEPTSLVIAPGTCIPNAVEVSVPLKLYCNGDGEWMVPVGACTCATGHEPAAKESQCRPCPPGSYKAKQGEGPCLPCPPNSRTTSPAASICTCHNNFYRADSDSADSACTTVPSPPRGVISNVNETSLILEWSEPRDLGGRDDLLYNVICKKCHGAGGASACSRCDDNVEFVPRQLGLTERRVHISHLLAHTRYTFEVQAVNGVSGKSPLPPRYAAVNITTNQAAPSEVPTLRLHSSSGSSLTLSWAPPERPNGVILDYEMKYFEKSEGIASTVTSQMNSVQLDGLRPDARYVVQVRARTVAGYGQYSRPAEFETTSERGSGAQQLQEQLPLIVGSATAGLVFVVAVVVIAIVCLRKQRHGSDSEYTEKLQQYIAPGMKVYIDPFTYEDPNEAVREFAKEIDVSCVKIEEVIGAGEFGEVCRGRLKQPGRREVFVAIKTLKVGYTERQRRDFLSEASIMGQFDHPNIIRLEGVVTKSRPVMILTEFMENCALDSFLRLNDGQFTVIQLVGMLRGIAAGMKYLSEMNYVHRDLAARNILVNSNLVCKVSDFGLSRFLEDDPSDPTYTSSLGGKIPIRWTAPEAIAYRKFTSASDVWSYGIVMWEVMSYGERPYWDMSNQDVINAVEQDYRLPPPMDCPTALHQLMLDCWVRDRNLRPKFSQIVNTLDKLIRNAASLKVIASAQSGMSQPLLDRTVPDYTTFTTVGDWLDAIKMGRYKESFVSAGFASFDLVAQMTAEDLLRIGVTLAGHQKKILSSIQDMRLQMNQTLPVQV
Description: as §1

EPHB4 = target: T18, EPHB4 (Homo sapiens, UniProt P54760)
T18 construct: purchased In-house HTRF panel (56 kinases) and PerkinElmer (161-kinase panel)
Description: as §1

Erk2 = target: T19, Erk2 (Homo sapiens, UniProt P28482)
T19 construct: purchased In-house HTRF panel (56 kinases) and PerkinElmer (161-kinase panel)
T19 sequence (P28482 whole entry): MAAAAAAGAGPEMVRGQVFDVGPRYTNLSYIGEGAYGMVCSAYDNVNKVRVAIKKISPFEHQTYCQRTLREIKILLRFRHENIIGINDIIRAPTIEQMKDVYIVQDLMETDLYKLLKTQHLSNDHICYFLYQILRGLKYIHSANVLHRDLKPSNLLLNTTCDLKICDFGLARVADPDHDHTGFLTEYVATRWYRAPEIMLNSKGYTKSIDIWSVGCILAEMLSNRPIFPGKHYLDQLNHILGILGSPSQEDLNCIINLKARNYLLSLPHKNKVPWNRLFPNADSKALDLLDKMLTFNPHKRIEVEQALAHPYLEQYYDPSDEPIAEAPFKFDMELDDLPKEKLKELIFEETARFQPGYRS
Description: as §1

FRK = target: T20, FRK (Homo sapiens, UniProt P42685)
T20 construct: purchased In-house HTRF panel (56 kinases) and PerkinElmer (161-kinase panel)
Description: as §1

GCK = target: T21, GCK (Homo sapiens, UniProt Q12851)
T21 construct: purchased In-house HTRF panel (56 kinases) and PerkinElmer (161-kinase panel)
Description: as §1

HIPK1 = target: T22, HIPK1 (Homo sapiens, UniProt Q86Z02)
T22 construct: purchased In-house HTRF panel (56 kinases) and PerkinElmer (161-kinase panel)
T22 sequence (Q86Z02 whole entry): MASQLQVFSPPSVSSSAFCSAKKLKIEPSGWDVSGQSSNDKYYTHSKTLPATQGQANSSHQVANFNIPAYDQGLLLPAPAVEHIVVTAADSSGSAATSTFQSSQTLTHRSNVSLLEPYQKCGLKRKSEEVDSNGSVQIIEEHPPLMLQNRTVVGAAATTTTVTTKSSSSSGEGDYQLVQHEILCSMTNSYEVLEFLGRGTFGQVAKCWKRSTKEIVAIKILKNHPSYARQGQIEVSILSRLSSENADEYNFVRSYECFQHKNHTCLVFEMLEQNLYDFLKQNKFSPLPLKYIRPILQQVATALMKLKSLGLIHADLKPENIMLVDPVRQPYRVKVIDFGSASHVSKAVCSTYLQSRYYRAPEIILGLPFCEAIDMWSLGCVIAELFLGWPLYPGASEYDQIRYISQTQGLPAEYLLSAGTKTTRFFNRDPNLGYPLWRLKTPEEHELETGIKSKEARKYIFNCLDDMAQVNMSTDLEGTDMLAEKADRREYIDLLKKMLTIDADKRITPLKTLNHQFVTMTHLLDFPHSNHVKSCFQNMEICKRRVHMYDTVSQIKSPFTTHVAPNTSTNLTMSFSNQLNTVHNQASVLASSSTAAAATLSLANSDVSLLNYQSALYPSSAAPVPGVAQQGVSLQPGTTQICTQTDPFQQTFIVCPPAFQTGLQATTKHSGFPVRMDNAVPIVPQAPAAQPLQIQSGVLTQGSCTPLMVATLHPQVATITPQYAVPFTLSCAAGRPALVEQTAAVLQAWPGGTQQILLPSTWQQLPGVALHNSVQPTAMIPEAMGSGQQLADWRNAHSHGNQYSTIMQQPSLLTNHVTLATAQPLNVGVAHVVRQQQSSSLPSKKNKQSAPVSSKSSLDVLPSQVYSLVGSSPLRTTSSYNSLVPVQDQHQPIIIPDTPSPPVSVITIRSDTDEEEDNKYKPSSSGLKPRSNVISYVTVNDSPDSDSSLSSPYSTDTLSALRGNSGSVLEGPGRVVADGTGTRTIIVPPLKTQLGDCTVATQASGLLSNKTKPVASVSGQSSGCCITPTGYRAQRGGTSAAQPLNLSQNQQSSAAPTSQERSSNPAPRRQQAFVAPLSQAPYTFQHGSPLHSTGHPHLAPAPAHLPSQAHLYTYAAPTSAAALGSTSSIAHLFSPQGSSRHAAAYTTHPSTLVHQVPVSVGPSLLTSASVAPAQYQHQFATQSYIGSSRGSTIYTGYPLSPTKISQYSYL
Description: as §1

MELK = target: T23, MELK (Homo sapiens, UniProt Q14680)
T23 construct: purchased In-house HTRF panel (56 kinases) and PerkinElmer (161-kinase panel)
Description: as §1

MST3 (STK24) = target: T24, MST3 (STK24) (Homo sapiens, UniProt Q9Y6E0)
T24 construct: purchased In-house HTRF panel (56 kinases) and PerkinElmer (161-kinase panel)
T24 sequence (Q9Y6E0 whole entry): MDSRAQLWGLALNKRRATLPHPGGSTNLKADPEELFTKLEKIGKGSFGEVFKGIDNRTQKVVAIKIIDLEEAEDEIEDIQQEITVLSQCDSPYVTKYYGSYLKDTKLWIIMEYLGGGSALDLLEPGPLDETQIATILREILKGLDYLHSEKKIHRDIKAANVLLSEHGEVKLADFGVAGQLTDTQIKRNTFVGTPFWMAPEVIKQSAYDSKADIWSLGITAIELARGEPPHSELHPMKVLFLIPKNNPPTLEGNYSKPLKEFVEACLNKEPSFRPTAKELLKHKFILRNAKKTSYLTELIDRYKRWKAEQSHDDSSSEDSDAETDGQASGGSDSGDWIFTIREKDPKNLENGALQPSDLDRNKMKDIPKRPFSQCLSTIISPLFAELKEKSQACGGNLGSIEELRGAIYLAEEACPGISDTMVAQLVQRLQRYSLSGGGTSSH
Description: as §1

NTRK2 (TRKB) = target: T25, NTRK2 (TRKB) (Homo sapiens, UniProt Q16620)
T25 construct: purchased In-house HTRF panel (56 kinases) and PerkinElmer (161-kinase panel)
T25 sequence (Q16620 32-822): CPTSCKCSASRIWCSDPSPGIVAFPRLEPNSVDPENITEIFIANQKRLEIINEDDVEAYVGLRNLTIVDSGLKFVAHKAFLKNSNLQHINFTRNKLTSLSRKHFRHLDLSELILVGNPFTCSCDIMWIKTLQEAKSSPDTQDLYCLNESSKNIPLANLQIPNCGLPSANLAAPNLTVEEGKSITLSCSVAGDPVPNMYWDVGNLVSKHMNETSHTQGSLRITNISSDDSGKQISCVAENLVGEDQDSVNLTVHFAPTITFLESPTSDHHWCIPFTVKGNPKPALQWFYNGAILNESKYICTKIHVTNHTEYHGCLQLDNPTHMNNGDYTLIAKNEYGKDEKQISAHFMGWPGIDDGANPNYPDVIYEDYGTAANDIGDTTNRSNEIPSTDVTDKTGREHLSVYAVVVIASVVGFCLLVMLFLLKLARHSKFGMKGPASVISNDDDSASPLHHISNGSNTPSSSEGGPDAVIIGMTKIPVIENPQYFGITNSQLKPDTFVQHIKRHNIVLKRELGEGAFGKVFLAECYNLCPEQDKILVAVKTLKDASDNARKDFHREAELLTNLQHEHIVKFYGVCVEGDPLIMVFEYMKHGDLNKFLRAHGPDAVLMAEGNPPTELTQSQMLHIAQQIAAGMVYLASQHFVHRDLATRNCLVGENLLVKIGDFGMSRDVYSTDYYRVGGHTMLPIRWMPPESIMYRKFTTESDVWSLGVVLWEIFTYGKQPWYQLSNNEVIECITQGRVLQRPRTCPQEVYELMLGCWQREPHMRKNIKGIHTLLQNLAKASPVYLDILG
Description: as §1

NuaK1 = target: T26, NuaK1 (Homo sapiens, UniProt O60285)
T26 construct: purchased In-house HTRF panel (56 kinases) and PerkinElmer (161-kinase panel)
Description: as §1

PAK4 = PAK4 (Homo sapiens, UniProt O96013)
Description: as §1

PASK = target: T27, PASK (Homo sapiens, UniProt Q96RG2)
T27 construct: purchased In-house HTRF panel (56 kinases) and PerkinElmer (161-kinase panel)
Description: as §1

PDGFR BETA = target: T28, PDGFR BETA (Homo sapiens, UniProt P09619)
T28 construct: purchased In-house HTRF panel (56 kinases) and PerkinElmer (161-kinase panel)
Description: as §1

PKC-delta = target: T29, PKC-delta (Homo sapiens, UniProt Q05655)
T29 construct: purchased In-house HTRF panel (56 kinases) and PerkinElmer (161-kinase panel)
Description: as §1

PKC-epsilon = target: T30, PKC-epsilon (Homo sapiens, UniProt Q02156)
T30 construct: purchased In-house HTRF panel (56 kinases) and PerkinElmer (161-kinase panel)
Description: as §1

PKC-theta = target: T31, PKC-theta (Homo sapiens, UniProt Q04759)
T31 construct: purchased In-house HTRF panel (56 kinases) and PerkinElmer (161-kinase panel)
Description: as §1

PKD2 = target: T32, PKD2 (Homo sapiens, UniProt Q9BZL6)
T32 construct: purchased In-house HTRF panel (56 kinases) and PerkinElmer (161-kinase panel)
Description: as §1

PRAK = target: T33, PRAK (Homo sapiens, UniProt Q8IW41)
T33 construct: purchased In-house HTRF panel (56 kinases) and PerkinElmer (161-kinase panel)
Description: as §1

PYK2 = target: T34, PYK2 (Homo sapiens, UniProt Q14289)
T34 construct: purchased In-house HTRF panel (56 kinases) and PerkinElmer (161-kinase panel)
Description: as §1

ROS (ROS1) = target: T35, ROS (ROS1) (Homo sapiens, UniProt P08922)
T35 construct: purchased In-house HTRF panel (56 kinases) and PerkinElmer (161-kinase panel)
Description: as §1

RSK1 = target: T36, RSK1 (Homo sapiens, UniProt Q15418)
T36 construct: purchased In-house HTRF panel (56 kinases) and PerkinElmer (161-kinase panel)
T36 sequence (Q15418 whole entry): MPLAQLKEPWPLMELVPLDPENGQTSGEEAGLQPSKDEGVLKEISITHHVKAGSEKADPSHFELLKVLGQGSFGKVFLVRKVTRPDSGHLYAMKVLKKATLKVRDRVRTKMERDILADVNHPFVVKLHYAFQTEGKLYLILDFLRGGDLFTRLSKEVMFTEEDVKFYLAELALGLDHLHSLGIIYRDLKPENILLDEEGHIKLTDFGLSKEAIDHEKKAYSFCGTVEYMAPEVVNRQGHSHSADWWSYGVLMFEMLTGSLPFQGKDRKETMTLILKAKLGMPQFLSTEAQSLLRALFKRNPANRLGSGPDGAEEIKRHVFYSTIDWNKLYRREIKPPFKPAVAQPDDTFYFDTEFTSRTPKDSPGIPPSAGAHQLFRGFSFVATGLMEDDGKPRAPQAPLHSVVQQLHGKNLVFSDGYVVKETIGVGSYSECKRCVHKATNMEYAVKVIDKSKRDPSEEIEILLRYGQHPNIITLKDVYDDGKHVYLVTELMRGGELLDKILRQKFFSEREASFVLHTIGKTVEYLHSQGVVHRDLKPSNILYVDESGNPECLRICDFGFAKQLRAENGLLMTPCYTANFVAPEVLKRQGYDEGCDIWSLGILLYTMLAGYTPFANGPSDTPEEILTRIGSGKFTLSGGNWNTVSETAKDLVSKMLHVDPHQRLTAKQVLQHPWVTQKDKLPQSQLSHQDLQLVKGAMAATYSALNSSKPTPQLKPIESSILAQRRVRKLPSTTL
Description: as §1

TSSK1 = target: T37, TSSK1 (Homo sapiens, UniProt Q9BXA7)
T37 construct: purchased In-house HTRF panel (56 kinases) and PerkinElmer (161-kinase panel)
Description: as §1

TSSK2 = target: T38, TSSK2 (Homo sapiens, UniProt Q96PF2)
T38 construct: purchased In-house HTRF panel (56 kinases) and PerkinElmer (161-kinase panel)
Description: as §1

Yes = target: T39, Yes (Homo sapiens, UniProt P07947)
T39 construct: purchased In-house HTRF panel (56 kinases) and PerkinElmer (161-kinase panel)
Description: as §1

p38-beta 2 = target: T40, p38-beta 2 (Homo sapiens, UniProt Q15759)
T40 construct: purchased In-house HTRF panel (56 kinases) and PerkinElmer (161-kinase panel)
T40 sequence (Q15759 whole entry): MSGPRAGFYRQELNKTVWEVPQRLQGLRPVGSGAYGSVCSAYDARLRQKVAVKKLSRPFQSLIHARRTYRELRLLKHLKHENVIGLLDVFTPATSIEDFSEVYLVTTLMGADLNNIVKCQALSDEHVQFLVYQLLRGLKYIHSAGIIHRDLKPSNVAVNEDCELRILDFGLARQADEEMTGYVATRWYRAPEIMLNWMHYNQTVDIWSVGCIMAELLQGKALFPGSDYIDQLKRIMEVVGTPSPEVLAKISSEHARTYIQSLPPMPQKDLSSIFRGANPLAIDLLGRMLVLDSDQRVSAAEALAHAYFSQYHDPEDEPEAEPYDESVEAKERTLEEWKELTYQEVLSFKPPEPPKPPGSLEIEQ
Description: as §1

p70S6K = target: T41, p70S6K (Homo sapiens, UniProt P23443)
T41 construct: purchased In-house HTRF panel (56 kinases) and PerkinElmer (161-kinase panel)
Description: as §1

`CCN1C(=O)N(c2c(F)c(OC)cc(OC)c2F)Cc2cnc3[nH]c(CN4CCOCC4)cc3c21` [INCB054828, pemigatinib] was tested, and the inhibition at 0.1 µM (ABL) was -4%, the inhibition at 0.1 µM (ABL1(Y253F)) was 2% and the inhibition at 0.1 µM (AKT2) was 2%. The inhibition at 0.1 µM (AKT3) was 3%, the inhibition at 0.1 µM [1] was 7% and the inhibition at 0.1 µM (Abl (Q252H)) was 1%. The inhibition at 0.1 µM (Abl (T315I)) was 2%, the inhibition at 0.1 µM (AurB) was 11% and the inhibition at 0.1 µM (BTK) was -3%. It also gave an inhibition at 0.1 µM (CAMK4) of -1%, an inhibition at 0.1 µM (CHK1) of 0% and an inhibition at 0.1 µM (CLK2) of -3%. It also gave an inhibition at 0.1 µM (Ca MK1a) of 3%, an inhibition at 0.1 µM (DCAMKL1) of -4% and an inhibition at 0.1 µM (EPHA1) of 2%. For the same compound, the inhibition at 0.1 µM (EPHA3) was 0%, the inhibition at 0.1 µM (EPHB1) was 0% and the inhibition at 0.1 µM (EPHB3) was 0%. It also gave an inhibition at 0.1 µM (EPHB4) of 4%, an inhibition at 0.1 µM (Erk2) of 3% and an inhibition at 0.1 µM (FRK) of 0%. For the same compound, the inhibition at 0.1 µM (GCK) was 1%, the inhibition at 0.1 µM (HIPK1) was -1% and the inhibition at 0.1 µM (MELK) was 2%. It also gave an inhibition at 0.1 µM (MST3 (STK24)) of 7%, an inhibition at 0.1 µM (NTRK2 (TRKB)) of 1% and an inhibition at 0.1 µM (NuaK1) of -3%. It also gave an inhibition at 0.1 µM (PAK4) of 5%, an inhibition at 0.1 µM (PASK) of -7% and an inhibition at 0.1 µM (PDGFR BETA) of 6%. The inhibition at 0.1 µM (PKC-delta) was 9%, the inhibition at 0.1 µM (PKC-epsilon) was 1% and the inhibition at 0.1 µM (PKC-theta) was 2%. For the same compound, the inhibition at 0.1 µM (PKD2) was -7%, the inhibition at 0.1 µM (PRAK) was -2% and the inhibition at 0.1 µM (PYK2) was -1%. It also gave an inhibition at 0.1 µM (ROS (ROS1)) of 3%, an inhibition at 0.1 µM (RSK1) of -2% and an inhibition at 0.1 µM (TSSK1) of -3%. The inhibition at 0.1 µM (TSSK2) was -3%, the inhibition at 0.1 µM (Yes) was 3% and the inhibition at 0.1 µM (p38-beta 2) was 2%. For the same compound, the inhibition at 0.1 µM (p70S6K) was 8%.
